Laboratory results: BindingDB's records for patent USRE49517 (Janssen Pharmaceuticals, 2023)

Target: Potassium voltage-gated channel subfamily H member 2 (Homo sapiens, UniProt Q12809)
Experiment: Inhibition of Specific Binding to the hERG Receptor (HERGBD)
Protocol: Binding was terminated by filtration of the incubated membrane preparations using Filtermat B (Pharmacia, Uppsala Sweden) and a Micro Cell Harvester (Skatron, Lier, Norway). The Filtermat B had been presoaked with 1% polyethylen imine and carefully washed with 0.05 M Tris/HCl-buffer pH=7.7 after the filtration to separate free and bound radioactivity. […] The optimal amount of membrane preparation in the assay was determined and optimized for each membrane preparation separately in front of using the membranes in compound testing. […] For pipetting of the incubation mixture we routinely use the robot Biomek2000 (Fa. Beckman).

Chain of Potassium voltage-gated channel subfamily H member 2 (Q12809 whole entry): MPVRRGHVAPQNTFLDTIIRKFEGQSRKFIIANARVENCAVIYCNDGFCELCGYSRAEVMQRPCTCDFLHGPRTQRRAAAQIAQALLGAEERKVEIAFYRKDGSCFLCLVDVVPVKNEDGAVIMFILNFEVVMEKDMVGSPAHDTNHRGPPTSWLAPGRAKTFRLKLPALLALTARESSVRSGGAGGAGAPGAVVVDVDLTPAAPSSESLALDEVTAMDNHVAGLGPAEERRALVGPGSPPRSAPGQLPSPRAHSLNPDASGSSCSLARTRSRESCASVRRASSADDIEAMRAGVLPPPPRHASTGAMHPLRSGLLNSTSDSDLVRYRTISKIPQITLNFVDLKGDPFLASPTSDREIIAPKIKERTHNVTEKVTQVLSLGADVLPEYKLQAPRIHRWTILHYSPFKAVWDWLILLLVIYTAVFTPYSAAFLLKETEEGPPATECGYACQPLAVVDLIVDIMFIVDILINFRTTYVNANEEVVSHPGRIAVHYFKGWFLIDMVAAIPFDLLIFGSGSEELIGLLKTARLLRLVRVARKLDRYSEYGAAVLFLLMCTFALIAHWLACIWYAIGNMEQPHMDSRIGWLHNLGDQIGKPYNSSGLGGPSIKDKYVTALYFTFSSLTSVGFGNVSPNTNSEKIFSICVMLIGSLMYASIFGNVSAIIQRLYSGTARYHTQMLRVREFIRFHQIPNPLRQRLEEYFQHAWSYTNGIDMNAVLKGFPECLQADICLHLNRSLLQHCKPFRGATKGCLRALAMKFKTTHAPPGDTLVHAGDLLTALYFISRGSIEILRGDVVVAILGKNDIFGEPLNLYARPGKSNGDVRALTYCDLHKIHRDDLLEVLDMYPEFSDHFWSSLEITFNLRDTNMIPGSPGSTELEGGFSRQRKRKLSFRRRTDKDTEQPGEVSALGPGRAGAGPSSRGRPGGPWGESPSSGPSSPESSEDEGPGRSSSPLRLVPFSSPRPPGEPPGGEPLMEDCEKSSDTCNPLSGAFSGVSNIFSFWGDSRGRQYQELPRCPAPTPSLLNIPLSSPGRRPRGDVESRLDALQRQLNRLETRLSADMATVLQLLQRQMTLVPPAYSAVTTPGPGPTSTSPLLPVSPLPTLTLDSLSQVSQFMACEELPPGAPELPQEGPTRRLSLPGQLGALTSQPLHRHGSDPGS

COc1cc(Cl)ccc1-c1cnn(Cc2ccn(C)n2)c1 [USRE49517, Example 67]
IC50: 63.3 µM
